Source: PubChem BioAssay (NCI)
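Grown in 96-well plates, cells were treated for 48 hours with each compound at five concentrations. Insufficient inhibition: endpoint recorded as highest concentration tested. GI50 is the concentration that inhibits growth by half. Definition used: TGI = concentration required for complete inhibition of growth.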

Experiments:
Assay in all cases: NCI-60 cell line screen, 48 h
NCI-H460 lung = test system: NCI-H460 lung
NCI-H522 lung = test system: NCI-H522 lung
NCI/ADR-RES ovarian = test system: NCI/ADR-RES ovarian
OVCAR-3 ovarian = test system: OVCAR-3 ovarian
OVCAR-4 ovarian = test system: OVCAR-4 ovarian
OVCAR-5 ovarian = test system: OVCAR-5 ovarian
OVCAR-8 ovarian = test system: OVCAR-8 ovarian
PC-3 prostate = test system: PC-3 prostate
RPMI-8226 leukemia = test system: RPMI-8226 leukemia
RXF 393 renal = test system: RXF 393 renal
SF-268 CNS = test system: SF-268 CNS
SF-295 CNS = test system: SF-295 CNS
SF-539 CNS = test system: SF-539 CNS
SK-MEL-2 melanoma = test system: SK-MEL-2 melanoma
SK-MEL-28 melanoma = test system: SK-MEL-28 melanoma
SK-MEL-5 melanoma = test system: SK-MEL-5 melanoma
SK-OV-3 ovarian = test system: SK-OV-3 ovarian
SN12C renal = test system: SN12C renal
SNB-19 CNS = test system: SNB-19 CNS
SNB-75 CNS = test system: SNB-75 CNS
SR leukemia = test system: SR leukemia
SW-620 colon = test system: SW-620 colon
T-47D breast = test system: T-47D breast
TK-10 renal = test system: TK-10 renal
U251 CNS = test system: U251 CNS
UACC-257 melanoma = test system: UACC-257 melanoma
UACC-62 melanoma = test system: UACC-62 melanoma
UO-31 renal = test system: UO-31 renal

For `Cc1ncn(-c2ccc(/C=N/Nc3ccnc4cc(Cl)ccc34)cc2)c1C`, the TGI (NCI-H460 lung) was 3570 nM, the GI50 (NCI-H522 lung) was 1800 nM and the TGI (NCI-H522 lung) was 3390 nM. It also gave a GI50 (NCI/ADR-RES ovarian) of 2070 nM, a TGI (NCI/ADR-RES ovarian) of 5040 nM and a GI50 (OVCAR-3 ovarian) of 1830 nM. The TGI (OVCAR-3 ovarian) was 3750 nM, the GI50 (OVCAR-4 ovarian) was 1670 nM and the TGI (OVCAR-4 ovarian) was 3190 nM. The GI50 (OVCAR-5 ovarian) was 3030 nM, the TGI (OVCAR-5 ovarian) was 10000 nM and the GI50 (OVCAR-8 ovarian) was 1870 nM. It also gave a TGI (OVCAR-8 ovarian) of 3670 nM, a GI50 (PC-3 prostate) of 1720 nM and a TGI (PC-3 prostate) of 3370 nM. It also gave a GI50 (RPMI-8226 leukemia) of 1990 nM, a TGI (RPMI-8226 leukemia) of 4520 nM and a GI50 (RXF 393 renal) of 1460 nM. The TGI (RXF 393 renal) was 2870 nM, the GI50 (SF-268 CNS) was 1860 nM and the TGI (SF-268 CNS) was 3960 nM. For the same molecule, the GI50 (SF-295 CNS) was 1880 nM, the TGI (SF-295 CNS) was 3520 nM and the GI50 (SF-539 CNS) was 1820 nM. The TGI (SF-539 CNS) was 3240 nM, the GI50 (SK-MEL-2 melanoma) was 1730 nM and the TGI (SK-MEL-2 melanoma) was 3220 nM. The GI50 (SK-MEL-28 melanoma) was 1650 nM, the TGI (SK-MEL-28 melanoma) was 3090 nM and the GI50 (SK-MEL-5 melanoma) was 2070 nM. The TGI (SK-MEL-5 melanoma) was 4380 nM, the GI50 (SK-OV-3 ovarian) was 1800 nM and the TGI (SK-OV-3 ovarian) was 3360 nM. For the same molecule, the GI50 (SN12C renal) was 1750 nM, the TGI (SN12C renal) was 3470 nM and the GI50 (SNB-19 CNS) was 1880 nM. The TGI (SNB-19 CNS) was 3880 nM, the GI50 (SNB-75 CNS) was 1510 nM and the TGI (SNB-75 CNS) was 2890 nM. For the same molecule, the GI50 (SR leukemia) was 1240 nM, the TGI (SR leukemia) was 4570 nM and the GI50 (SW-620 colon) was 1630 nM. The TGI (SW-620 colon) was 3540 nM, the GI50 (T-47D breast) was 1830 nM and the TGI (T-47D breast) was 3830 nM. The GI50 (TK-10 renal) was 1850 nM, the TGI (TK-10 renal) was 3360 nM and the GI50 (U251 CNS) was 1590 nM. It also gave a TGI (U251 CNS) of 2990 nM, a GI50 (UACC-257 melanoma) of 1700 nM and a TGI (UACC-257 melanoma) of 3110 nM. The GI50 (UACC-62 melanoma) was 1740 nM, the TGI (UACC-62 melanoma) was 3240 nM and the GI50 (UO-31 renal) was 1640 nM. For the same molecule, the TGI (UO-31 renal) was 3030 nM.
